These results are taken from paper PMC3662613 (Chemmedchem, 2013).

The target in data set [1] is p97 ATPase (Homo sapiens, UniProt P55072). As to the kind of experiment: p97 ATPase assay. To be noted: for IC50: IC50 ATPase, triplicate, mean ±SD. It is filed as biochemical.
Data set [2] deals with HMEC, PHMLEB, PHMLER cells. Kind of data set: Cellular viability. It is filed as cell-based, human. To be noted: 24 h, CellTiter-Glo.
The subject of data set [3] is ubiquitin conjugates. As to the kind of experiment: Ubiquitin conjugate accumulation immunoblot, SW403 cells. To be noted: 5–10 μM; nuclear plus membrane and cytosolic compartments.
The subject of data set [4] is SW403. As to the kind of experiment: Cytotoxicity / antiproliferative activity. It is filed as cell-based. To be noted: Homo sapiens.
The subject of data set [5] is HCT15. As to the kind of experiment: Cytotoxicity / antiproliferative activity. Type of data set: cell-based. To be noted: Homo sapiens.
Data set [6] concerns ODD-Luc (p97-independent proteasome substrate). As to the kind of experiment: ODD-Luc reporter degradation assay, dual reporter HeLa cell line. As to conditions: Homo sapiens, read-out: IC50 ODD-Luc. It is filed as cell-based.
The nature of data set [7]: Plasma protein binding. It is filed as in vitro ADME. As to conditions: mouse.
Data set [8] is described as follows: Hepatic toxicity. To be noted: human, Fa2N-4 immortalized human hepatocytes. Type of data set: cell-based.
A short description of data set [9]: Hepatic microsome stability. It is filed as in vitro ADME. As to conditions: mouse, liver microsomes.
A short description of data set [10]: Plasma stability. It is filed as in vitro ADME. To be noted: mouse.
Data set [11] deals with caspases 3 and 7. As to the kind of experiment: Caspase 3 and 7 activity in colon cancer cell lines. Type of data set: cell-based. To be noted: multiple colon cancer cell lines; dose- and time-dependent.
Data set [12] in a line: Plasma protein binding. Type of data set: in vitro ADME. To be noted: human.
Data set [13] has as its system poly(ADP-ribose) polymerase (PARP). Kind of data set: PARP cleavage immunoblot, SW403 cells. It is filed as cell-based. As to conditions: 2 h.
A short description of data set [14]: Aqueous solubility. As to conditions: aqueous buffer. It is filed as physicochemical.
A short description of data set [15]: Plasma stability. It is filed as in vitro ADME. To be noted: human.
Data set [16] concerns NCI 60 cancer cell lines. Kind of data set: NCI 60-cell-line screen. Type of data set: cell-based. As to conditions: 48 h; for Mean GP: mean of 60 NCI cell lines ±SD.
A short description of data set [17]: Hepatic microsome stability. Type of data set: in vitro ADME. As to conditions: human, liver microsomes.
Data set [18] can be described thus: PAMPA. It is filed as in vitro ADME. As to conditions: acceptor pH 7.4; for Papp: PAMPA; for PAMPA Pe: in the presence of 20% CH3CN.
Data set [19] concerns the target PIP5K3 (Homo sapiens, UniProt Q9Y2I7). Kind of data set: KiNativ profiling. It is filed as binding. As to conditions: 20 μM, ATP.
Data set [20] has as its target JAK1 domain1 (Homo sapiens, UniProt P23458). Kind of data set: KiNativ profiling. Type of data set: binding. To be noted: 20 μM, Other.
The target of data set [21] is 5-HT5a (Homo sapiens, UniProt P47898). Kind of data set: CNS panel binding. To be noted: 5HT5a receptor.
The test system of data set [22] is LC3-II. As to the kind of experiment: Autophagy reporter LC3-II immunoblot. To be noted: for accumulation of lipidated LC3-II: HEK293, 5 h.
In data set [23] the test system is ∼170 kinases. As to the kind of experiment: KiNativ kinase profiling, whole panel, PC3 cell lysate. It is filed as binding, Homo sapiens. To be noted: 20 μM.
The mark [24] stands for this setting: SW-403, 24 h, read-out: Cytotoxicity GI50 SW403 24 h.
The mark [25] stands for this setting: SW-403, 72 h, read-out: Cytotoxicity GI50 SW403 72 h.
The mark [26] stands for this setting: HCT-15, 24 h, read-out: Cytotoxicity GI50 HCT15 24 h.
Setting [27] is: HCT-15, 72 h, read-out: Cytotoxicity GI50 HCT15 72 h.

Each structure is given as a SMILES string. In brackets after ≈: the same amount, converted by molar mass. Several values for one entry are separate records, joined by “and”; a condition that tells them apart may be missing. Identical values can stand only once. Like-named read-outs stand apart in the source and are kept apart here.

p97 ATPase, sequence (P55072 whole entry): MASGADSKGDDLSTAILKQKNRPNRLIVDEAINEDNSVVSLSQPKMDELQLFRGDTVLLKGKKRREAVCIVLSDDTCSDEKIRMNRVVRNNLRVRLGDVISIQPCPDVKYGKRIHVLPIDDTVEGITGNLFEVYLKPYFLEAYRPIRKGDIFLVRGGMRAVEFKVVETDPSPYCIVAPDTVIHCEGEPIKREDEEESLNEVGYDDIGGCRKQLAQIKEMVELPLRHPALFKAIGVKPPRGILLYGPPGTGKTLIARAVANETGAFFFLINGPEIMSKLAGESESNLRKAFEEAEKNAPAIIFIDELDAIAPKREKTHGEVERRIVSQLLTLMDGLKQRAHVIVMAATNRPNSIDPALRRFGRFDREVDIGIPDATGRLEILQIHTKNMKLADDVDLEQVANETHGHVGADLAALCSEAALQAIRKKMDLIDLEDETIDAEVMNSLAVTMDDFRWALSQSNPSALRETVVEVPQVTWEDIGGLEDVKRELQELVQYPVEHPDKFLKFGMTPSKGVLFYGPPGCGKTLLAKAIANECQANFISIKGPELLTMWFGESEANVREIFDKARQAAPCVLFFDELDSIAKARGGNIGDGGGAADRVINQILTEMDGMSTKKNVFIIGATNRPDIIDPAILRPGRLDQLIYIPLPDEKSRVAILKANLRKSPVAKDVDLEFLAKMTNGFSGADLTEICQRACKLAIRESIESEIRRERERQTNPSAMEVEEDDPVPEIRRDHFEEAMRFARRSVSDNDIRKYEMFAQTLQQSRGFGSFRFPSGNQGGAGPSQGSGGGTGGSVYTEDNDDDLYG
PIP5K3, sequence (Q9Y2I7 whole entry, the tested form may be a part): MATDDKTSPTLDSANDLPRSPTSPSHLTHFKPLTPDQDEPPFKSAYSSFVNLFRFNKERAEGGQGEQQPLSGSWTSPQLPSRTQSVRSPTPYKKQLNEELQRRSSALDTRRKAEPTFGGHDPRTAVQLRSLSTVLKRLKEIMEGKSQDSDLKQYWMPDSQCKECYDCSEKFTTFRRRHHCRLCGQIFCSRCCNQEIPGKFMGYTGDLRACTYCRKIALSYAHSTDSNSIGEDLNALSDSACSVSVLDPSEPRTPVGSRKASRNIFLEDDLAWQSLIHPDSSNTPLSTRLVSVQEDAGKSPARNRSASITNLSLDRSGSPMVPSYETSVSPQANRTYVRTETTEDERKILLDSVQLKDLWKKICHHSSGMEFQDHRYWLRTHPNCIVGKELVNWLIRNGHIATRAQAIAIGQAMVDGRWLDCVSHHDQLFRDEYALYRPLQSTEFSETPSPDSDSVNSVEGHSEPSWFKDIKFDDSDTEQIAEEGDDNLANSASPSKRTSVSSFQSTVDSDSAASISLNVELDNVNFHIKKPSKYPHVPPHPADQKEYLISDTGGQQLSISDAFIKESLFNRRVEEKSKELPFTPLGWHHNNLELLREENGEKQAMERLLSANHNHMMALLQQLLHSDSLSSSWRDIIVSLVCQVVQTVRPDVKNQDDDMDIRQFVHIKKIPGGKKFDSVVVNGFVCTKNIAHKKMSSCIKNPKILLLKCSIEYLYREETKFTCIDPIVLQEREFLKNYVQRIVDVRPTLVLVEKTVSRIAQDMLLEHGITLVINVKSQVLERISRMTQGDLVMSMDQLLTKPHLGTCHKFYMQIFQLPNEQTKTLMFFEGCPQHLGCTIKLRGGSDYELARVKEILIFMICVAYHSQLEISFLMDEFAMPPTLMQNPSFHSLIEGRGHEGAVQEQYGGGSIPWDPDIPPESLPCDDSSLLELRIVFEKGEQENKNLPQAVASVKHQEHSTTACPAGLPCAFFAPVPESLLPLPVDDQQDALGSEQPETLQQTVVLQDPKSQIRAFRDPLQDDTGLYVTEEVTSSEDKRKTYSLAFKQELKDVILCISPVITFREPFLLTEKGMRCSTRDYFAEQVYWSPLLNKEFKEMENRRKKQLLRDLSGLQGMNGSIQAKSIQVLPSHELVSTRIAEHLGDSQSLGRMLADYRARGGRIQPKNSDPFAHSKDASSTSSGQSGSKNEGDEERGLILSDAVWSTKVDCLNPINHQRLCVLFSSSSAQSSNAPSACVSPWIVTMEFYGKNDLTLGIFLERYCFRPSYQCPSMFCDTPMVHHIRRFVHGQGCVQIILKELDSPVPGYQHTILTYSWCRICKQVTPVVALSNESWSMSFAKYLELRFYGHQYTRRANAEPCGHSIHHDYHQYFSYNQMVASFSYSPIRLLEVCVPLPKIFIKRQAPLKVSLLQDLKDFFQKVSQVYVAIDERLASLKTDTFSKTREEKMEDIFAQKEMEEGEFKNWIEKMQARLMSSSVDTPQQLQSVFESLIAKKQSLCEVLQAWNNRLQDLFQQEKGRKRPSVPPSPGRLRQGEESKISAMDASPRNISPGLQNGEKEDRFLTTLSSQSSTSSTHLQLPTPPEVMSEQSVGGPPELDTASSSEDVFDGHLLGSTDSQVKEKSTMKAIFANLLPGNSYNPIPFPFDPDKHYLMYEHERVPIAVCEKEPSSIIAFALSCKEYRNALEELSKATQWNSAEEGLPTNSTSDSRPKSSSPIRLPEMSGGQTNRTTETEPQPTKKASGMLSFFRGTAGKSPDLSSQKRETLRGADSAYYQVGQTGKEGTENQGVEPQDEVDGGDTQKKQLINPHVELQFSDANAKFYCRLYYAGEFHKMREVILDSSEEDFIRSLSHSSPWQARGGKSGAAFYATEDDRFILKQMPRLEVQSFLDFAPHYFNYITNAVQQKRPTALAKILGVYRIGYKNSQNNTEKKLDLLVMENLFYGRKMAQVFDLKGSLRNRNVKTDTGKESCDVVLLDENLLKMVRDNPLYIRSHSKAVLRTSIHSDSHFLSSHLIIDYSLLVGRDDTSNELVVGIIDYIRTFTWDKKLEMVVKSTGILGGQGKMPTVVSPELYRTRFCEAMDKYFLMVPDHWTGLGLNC
5-HT5a, sequence (P47898 whole entry, species assumed): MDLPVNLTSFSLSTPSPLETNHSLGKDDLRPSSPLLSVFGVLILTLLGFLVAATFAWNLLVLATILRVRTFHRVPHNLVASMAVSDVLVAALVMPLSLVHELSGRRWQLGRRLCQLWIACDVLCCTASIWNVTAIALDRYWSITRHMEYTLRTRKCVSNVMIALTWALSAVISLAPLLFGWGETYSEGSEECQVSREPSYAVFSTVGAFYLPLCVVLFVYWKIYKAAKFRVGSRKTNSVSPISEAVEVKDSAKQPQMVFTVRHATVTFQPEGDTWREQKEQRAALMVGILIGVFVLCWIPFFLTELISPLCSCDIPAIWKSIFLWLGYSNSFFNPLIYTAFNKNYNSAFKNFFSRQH
JAK1 domain1, sequence (P23458 whole entry, the tested form may be a part): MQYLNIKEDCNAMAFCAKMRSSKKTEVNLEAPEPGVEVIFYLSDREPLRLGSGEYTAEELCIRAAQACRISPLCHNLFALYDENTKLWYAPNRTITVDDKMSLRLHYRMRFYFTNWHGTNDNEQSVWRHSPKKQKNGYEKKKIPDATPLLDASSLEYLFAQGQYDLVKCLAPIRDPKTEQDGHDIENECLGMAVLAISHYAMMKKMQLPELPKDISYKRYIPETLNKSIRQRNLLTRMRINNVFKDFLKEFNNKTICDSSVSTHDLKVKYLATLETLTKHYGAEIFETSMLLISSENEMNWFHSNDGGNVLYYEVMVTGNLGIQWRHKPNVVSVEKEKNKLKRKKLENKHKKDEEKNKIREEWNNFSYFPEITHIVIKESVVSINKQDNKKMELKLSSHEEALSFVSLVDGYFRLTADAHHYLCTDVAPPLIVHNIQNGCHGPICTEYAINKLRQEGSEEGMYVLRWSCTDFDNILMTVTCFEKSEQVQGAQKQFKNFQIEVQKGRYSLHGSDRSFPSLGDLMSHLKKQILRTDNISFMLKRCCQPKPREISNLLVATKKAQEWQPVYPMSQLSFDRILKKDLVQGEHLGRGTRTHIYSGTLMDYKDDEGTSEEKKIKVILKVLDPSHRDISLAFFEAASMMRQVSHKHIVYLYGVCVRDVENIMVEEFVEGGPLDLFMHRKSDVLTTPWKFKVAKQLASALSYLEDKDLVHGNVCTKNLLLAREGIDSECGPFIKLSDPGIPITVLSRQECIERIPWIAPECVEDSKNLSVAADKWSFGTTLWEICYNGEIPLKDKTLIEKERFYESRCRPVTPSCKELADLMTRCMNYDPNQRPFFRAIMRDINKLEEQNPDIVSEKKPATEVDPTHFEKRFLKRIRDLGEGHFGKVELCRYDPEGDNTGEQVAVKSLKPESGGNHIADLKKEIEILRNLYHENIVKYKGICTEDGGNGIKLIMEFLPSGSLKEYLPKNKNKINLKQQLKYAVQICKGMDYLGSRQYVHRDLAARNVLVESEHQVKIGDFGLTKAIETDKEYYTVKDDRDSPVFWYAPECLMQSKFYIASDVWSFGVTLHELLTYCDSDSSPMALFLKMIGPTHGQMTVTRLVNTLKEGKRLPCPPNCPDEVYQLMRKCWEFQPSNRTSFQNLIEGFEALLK

Take `c1ccc(CNc2nc(NCc3ccccc3)c3ccccc3n2)cc1` [DBeQ, N^2,N^4-dibenzylquinazoline-2,4-diamine]: the IC50 in data set [1] is 1.6 µM; in data set [6] it was 56 ± 14 µM. Also, the “potency on normal vs immortalized and tumorigenic cell lines” value in data set [2] was “slightly greater potency toward the immortalized and transformed cells”. For the same molecule, the “accumulation of ubiquitin conjugates” value in [3] is given as “caused accumulation of ubiquitin conjugates”. In addition, the GI50 in data set [4] (setting [24]) was 2.2 ± 0.6 µM; in data set [4] (setting [25]), 1.4 ± 0.5 µM; in [5] (setting [26]), 3.2 ± 1 µM; in [5] (setting [27]), 1.8 ± 0.7 µM.

Turning to `COc1cccc2c(NCc3ccccc3)nc(-n3c(N)nc4ccccc43)nc12` [ML240, 2-(2-Amino-1H-benzo[d]imidazol-1-yl)-N-benzyl-8-methoxyquinazolin-4-amine], the fraction unbound at 1 μM in [7] is 0.0027; in data set [12], 0.0047. For the same molecule, the fraction unbound at 10 μM is 0.0037 in data set [7] and 0.0029 in [12]. In addition, the CC50 in [8] is 8.5 µM. Besides, the Ki in [1] came to 0.22 µM; in data set [21], 2.5 µM. In addition, in data set [1], the “mechanism of p97 inhibition with respect to ATP” value is “competitively”. The IC50 in [1] is ~0.1 µM and 0.1 µM; in data set [6], 28 ± 7 µM. For the same molecule, the share remaining at 1 h in data set [9] stood at 0.63%; in data set [17] it was 54.3%. Also, the amount remaining at 3 h in data set [10] and in [15] was 100% each time. The “potency on normal vs immortalized and tumorigenic cell lines” value in [2] is “slightly greater potency toward the immortalized and transformed cells”. The “induction of caspase activity” value in [11] is “induced caspase activity”. Further, the “accumulation of ubiquitin conjugates” value in data set [3] is on record as “caused accumulation of ubiquitin conjugates”. Also, the GI50 in data set [4] (setting [24]) came to 0.5 ± 0.07 µM; in [4] (setting [25]), 0.5 ± 0.1 µM; in [5] (setting [26]) it was 0.76 ± 0.14 µM; in data set [5] (setting [27]) it was 0.54 ± 0.19 µM. The “cleavage of PARP” value in data set [13] is given as “induced efficient cleavage”. For the same molecule, the solubility in [14] (pH 5, aqueous buffer) was found to be 0.35 µg/mL (≈ 0.883 µM); in data set [14] (pH 6.2, aqueous buffer) it was 0.33 µg/mL (≈ 0.832 µM); in [14] (pH 7.4, aqueous buffer) it was 0.27 µg/mL (≈ 0.681 µM). For the same molecule, the “Highest GP” value in data set [16] (least inhibited individual cancer cell line) is −43.8 (HS 578T) %. For the same molecule, the “Mean GP” value in data set [16] is recorded as −84.5±15.5%. Moreover, the “Lowest GP” value in data set [16] (most inhibited individual cancer cell line) is listed as −100.0 (OVCAR-4) %. Moreover, the apparent permeability coefficient (Papp) in [18] (PAMPA Pe, donor pH 5.0) is 357 ×10⁻⁶ cm/s; in data set [18] (PAMPA Pe, donor pH 6.2) it was 628 ×10⁻⁶ cm/s; in data set [18] (pH 7.4, PAMPA Pe, donor pH 7.4) it was below 60.3 ×10⁻⁶ cm/s. Also, the “% Inhibition” value in [19] and in data set [20] was above 50% each time. Moreover, in data set [22] (HCT116, 10 μM, as early as), the “time of LC3-II accumulation after addition of drug” value was 10 min. Further, the “accumulation of lipidated LC3-II” value in data set [22] is “induced accumulation”.

Take `c1ccc(CNc2nc(N3CCOc4ccccc43)nc3c2CCCC3)cc1` [ML241, 2-(2H-Benzo[b][1,4]oxazin-4(3H)-yl)-N-benzyl-5,6,7,8-tetrahydroquinazolin-4-amine]: the values for the fraction unbound at 1 μM in [7] and in data set [12] were 0.0005 and 0.0003, respectively. Besides, the free fraction (fraction unbound) at 10 μM in data set [7] is 0.0009; in data set [12], 0.0005. The molecule further had a CC50 in data set [8] above 50 µM. This molecule also yielded a Ki in data set [1] of 0.35 µM. Also, in [1], the “mechanism of p97 inhibition with respect to ATP” value was “competitively”. Besides, the IC50 is ~0.1 µM and 0.1 µM in data set [1]; 46 ± 8 µM in [6]. For the same molecule, the figures for the fraction remaining at 1 h in [9] and in [17] were 2.57% and 19%, respectively. Further, the share remaining at 3 h in [10] and in data set [15] was 100% throughout. Also, the “accumulation of ubiquitin conjugates” value in data set [3] is “caused accumulation of ubiquitin conjugates”. Also, the “inhibition of labeling across the panel” value in data set [23] was “did not appreciably inhibit labeling”. The GI50 in data set [4] (setting [24]) came to 33 ± 7 µM; in data set [4] (setting [25]), 12 ± 3 µM; in data set [5] (setting [26]), 53 ± 5 µM; in [5] (setting [27]), 13 ± 4 µM. Further, the solubility is 28 µg/mL (≈ 75.2 µM) in data set [14] (pH 5, aqueous buffer); 0.13 µg/mL (≈ 0.349 µM) in data set [14] (pH 6.2, aqueous buffer); 0.2 µg/mL (≈ 0.537 µM) in [14] (pH 7.4, aqueous buffer). In data set [16], the “Mean GP” value is 92.8±22.8%. The “PAMPA Pe” value in data set [18] (donor pH 5.0) was 1164 ×10⁻⁶ cm/s; in [18] (donor pH 6.2) it was 2504 ×10⁻⁶ cm/s; in [18] (donor pH 7.4) it was 2278 ×10⁻⁶ cm/s. In data set [22], the “accumulation of lipidated LC3-II” value is “lack of effect”.

As to `CO/C1=C\C(C)=C\[C@@H](C)[C@@H](O)[C@@H](C)C/C(C)=C/C=C/[C@H](OC)[C@@H]([C@@H](C)[C@@H](O)[C@H](C)[C@@]2(O)C[C@@H](O)[C@H](C)[C@@H](C(C)C)O2)OC1=O` [bafilomycin, reference compound], the “potency on normal vs immortalized and tumorigenic cell lines” value in data set [2] is recorded as “equal potency”.

On to `CC(C)C[C@H](NC(=O)[C@H](Cc1ccccc1)NC(=O)c1cnccn1)B(O)O` [bortezomib, reference compound], for which the “potency on normal vs immortalized and tumorigenic cell lines” value in data set [2] is “equal potency”.

For `CCCCNc1ncc2c(-c3ccc(F)cc3)nn(C[C@H]3CC[C@H](N)CC3)c2n1` [pyrazolopyrimidine, reference compound], the “number of protein kinases (domains) with >50% inhibition of labeling” value in data set [23] was determined as 56.
